Reference: patent US20100144727A1, “Oxazolidine and Morpholine Carboxamide Derivatives as P2X7 Modulators” (priority 2007, published 2010)

target: T1, human P2X7 receptor (Homo sapiens, UniProt Q99572); test: Ethidium Accumulation Assay; format: cell-based; details: HEK293 cells expressing human recombinant P2X7 receptors; 1 mM ATP; ethidium 100 μM; read-out: pIC50 in the Ethidium Accumulation Assay (antagonist, blocking ATP responses) (converted)
T1 construct: expressed in transfected cells; host or cells: HEK293
T1 sequence (Q99572 1-595): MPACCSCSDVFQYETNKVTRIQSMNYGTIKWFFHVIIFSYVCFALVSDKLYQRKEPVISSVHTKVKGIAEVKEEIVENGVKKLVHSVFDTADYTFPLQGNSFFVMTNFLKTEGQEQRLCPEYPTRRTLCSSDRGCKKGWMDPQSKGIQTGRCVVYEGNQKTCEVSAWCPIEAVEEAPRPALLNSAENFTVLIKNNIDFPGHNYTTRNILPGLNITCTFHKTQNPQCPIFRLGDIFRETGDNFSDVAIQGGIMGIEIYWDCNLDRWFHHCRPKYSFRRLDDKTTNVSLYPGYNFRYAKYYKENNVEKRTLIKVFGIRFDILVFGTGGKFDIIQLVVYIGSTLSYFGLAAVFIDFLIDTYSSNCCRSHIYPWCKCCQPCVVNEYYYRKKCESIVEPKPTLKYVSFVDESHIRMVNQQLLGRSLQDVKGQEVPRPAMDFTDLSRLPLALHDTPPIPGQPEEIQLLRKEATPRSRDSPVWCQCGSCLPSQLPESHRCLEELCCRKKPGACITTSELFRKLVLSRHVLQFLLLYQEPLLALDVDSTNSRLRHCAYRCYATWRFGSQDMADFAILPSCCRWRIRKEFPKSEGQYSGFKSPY
Experimental: Studies were performed using NaCl assay buffer of the following composition (in mM): 140 mM NaCl, HEPES 10, N-methyl-D-glucamine 5, KCl 5.6, D-glucose 10, CaCl2 0.5 (pH 7.4). HEK293 cells, expressing human recombinant P2X7 receptors, were grown in poly-L-lysine pretreated 96 well plates for 18-24 h. […] The cells were washed twice with 350 μl of assay buffer before addition of 50 μl of antagonist. The cells were then incubated at room temperature (19-21° C.) for 30 min before addition of ATP and ethidium (100 μM final assay concentration). The ATP concentration was chosen to be close to the EC80 for the receptor type and was 1 mM for studies on the human P2X7 receptor. Incubations were continued for 8 or 16 min and were terminated by addition of 25 μl of 1.3M sucrose containing 5 mM of the P2X7 receptor antagonist reactive black 5 (Aldrich). Cellular accumulation of ethidium was determined by measuring fluorescence (excitation wavelength of 530 nm and emission wavelength of 620 nm) from below the plate with a Canberra Packard Fluorocount (Pangbourne, UK). Antagonist pIC50 values for blocking ATP responses were determined using iterative curve fitting techniques.

IC50, ≤ 100 nM:
CN1C(=O)OCC1C(=O)NCc1cccc(C(F)(F)F)c1Cl (stereo not shown) [Example E3, N-{[2-chloro-3-(trifluoromethyl)phenyl]methyl}-3-methyl-2-oxo-1,3-oxazolidine-4-carboxamide]
CN1C(=O)OC[C@H]1C(=O)NCc1cccc(C(F)(F)F)c1Cl [Example E4, N-{[2-chloro-3-(trifluoromethyl)phenyl]methyl}-3-methyl-2-oxo-1,3-oxazolidine-4-carboxamide]
CN1C(=O)COCC1C(=O)NCc1cccc(C(F)(F)F)c1Cl (stereo not shown) [Example E10, N-{[2-chloro-3-(trifluoromethyl)phenyl]methyl}-4-methyl-5-oxo-3-morpholinecarboxamide]
CCN1C(=O)OC[C@H]1C(=O)NCc1ccc(F)cc1Cl [Example E1, N-[(2-chloro-4-fluorophenyl)methyl]-3-ethyl-2-oxo-1,3-oxazolidine-4-carboxamide]
